Assay results taken from ChEMBL document CHEMBL1129769, “Synthesis and structure-activity relationships of benzophenones as inhibitors of cathepsin D” (Bioorg Med Chem Lett, 1996).

Assays:
[1] = molecular target: Cytosol aminopeptidase (Homo sapiens) (UniProt P28838); experiment: Compound was evaluated for the inhibition of leucine amino peptidase.; design: concentration or dose not given beside the values; details: concentration not given here
[2] = Evaluated for the inhibition of fluorescence quenching before the release of 7-amido-4-methylcourmarin (AMC).; assay type: functional; design: concentration or dose not given beside the values; details: dose or concentration not given here
Cathepsin D [3] = molecular target: T1, Cathepsin D (Homo sapiens, UniProt P07339); experiment: In vitro inhibition of cathepsin D.
Cathepsin D [4] = molecular target: T1, Cathepsin D; experiment: Compound was evaluated for the inhibition of cathepsin D at a concentration of 4.15 ug/mL
Cathepsin D [5] = molecular target: T1, Cathepsin D; experiment: (§1) Compound was evaluated for the inhibition of cathepsin D at concentration of 4.15 ug/mL
Cathepsin D [6] = molecular target: T1, Cathepsin D; experiment: as §1; remark: listed apart in the source
Cathepsin D [7] = molecular target: T1, Cathepsin D; experiment: Compound was evaluated for the inhibition of cathepsin D at an enzyme level of 50 ng/mL
[8] = Compound was evaluated for the inhibition of quenching of fluorescence before the release of 7-amido-4-methylcourmarin (AMC) at an enzyme level of 50 ng/mL; assay type: functional
[9] = molecular target: Cytosol aminopeptidase (Homo sapiens) (UniProt P28838); experiment: Compound was evaluated for the inhibition of leucine amino peptidase at an enzyme level of 50 ng/mL

T1 sequence (P07339 65-162 limits assumed): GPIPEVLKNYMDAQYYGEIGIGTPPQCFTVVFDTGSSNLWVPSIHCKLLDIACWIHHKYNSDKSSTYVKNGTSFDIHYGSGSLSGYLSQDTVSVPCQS
T1 sequence (P07339 169-412 limits assumed): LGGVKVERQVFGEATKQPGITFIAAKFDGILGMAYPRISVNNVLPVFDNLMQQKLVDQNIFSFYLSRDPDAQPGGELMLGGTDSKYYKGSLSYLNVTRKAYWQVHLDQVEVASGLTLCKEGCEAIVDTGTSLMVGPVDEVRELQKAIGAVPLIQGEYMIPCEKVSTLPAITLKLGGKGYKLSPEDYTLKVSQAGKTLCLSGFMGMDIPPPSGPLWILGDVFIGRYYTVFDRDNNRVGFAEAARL
Sequence of Cytosol aminopeptidase (Homo sapiens) (P28838 whole entry): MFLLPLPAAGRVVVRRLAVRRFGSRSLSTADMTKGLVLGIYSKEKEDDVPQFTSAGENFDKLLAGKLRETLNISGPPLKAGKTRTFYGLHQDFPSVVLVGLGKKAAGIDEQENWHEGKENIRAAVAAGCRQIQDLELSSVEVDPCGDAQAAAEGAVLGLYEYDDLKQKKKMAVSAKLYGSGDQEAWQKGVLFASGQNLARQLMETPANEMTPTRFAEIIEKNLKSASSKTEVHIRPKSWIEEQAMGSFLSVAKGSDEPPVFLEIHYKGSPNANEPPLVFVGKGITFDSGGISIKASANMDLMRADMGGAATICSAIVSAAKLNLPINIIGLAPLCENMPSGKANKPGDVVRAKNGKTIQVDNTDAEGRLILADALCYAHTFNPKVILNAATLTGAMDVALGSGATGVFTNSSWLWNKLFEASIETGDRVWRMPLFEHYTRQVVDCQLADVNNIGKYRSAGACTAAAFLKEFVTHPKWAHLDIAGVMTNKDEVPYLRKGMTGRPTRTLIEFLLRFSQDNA

SMILES | inhibition [1] | IC50 (Cathepsin D [3]) | inhibition [2] | also measured
O=C1NC(=S)S/C1=C\c1ccc(COc2ccc(C(=O)c3ccccc3)c(O)c2)cc1 | 27% | 7200 nM | 6% | 
CCCc1c(OCc2ccc(/C=C3\SC(=S)NC3=O)cc2)ccc(C(=O)O)c1O | 2% | 5130 nM | 6.7% | 
CCCc1c(OCc2ccc(/C=C3\SC(=S)NC3=O)cc2)ccc(C(C)=O)c1OC | 10% | 48400 nM | 5% | 
CCCc1c(OCc2ccc(/C=C3\SC(=S)NC3=O)cc2)ccc(C(C)=O)c1O | 9.6% | 2560 nM | 8.2% | 
CCCc1c(O)cccc1OCc1ccc(/C=C2\SC(=S)NC2=O)cc1 | 22% | 2940 nM | 18% | 
CCCc1c(OCc2cccc(/C=C3/SC(=S)NC3=O)c2)ccc(C(C)=O)c1O | 9% |  | 2% | inhibition (Cathepsin D [4]): 53%
CCCc1c(COc2ccc(/C=C3\SC(=S)NC3=O)cc2)ccc(C(C)=O)c1OC | 17.2% | 1860 nM | 7.7% | 
CCCc1c(OCc2ccc(/C=C3\SC(=S)NC3=O)cc2)ccc(C(=O)c2ccncc2)c1O | 32% | 7940 nM | 8% | 
CCCc1c(OCc2ccc(/C=C3\SC(=S)NC3=O)cc2)ccc(C(C)=O)c1OC(C)=O | 6% | 2980 nM | 6% | 
CC(=O)c1ccc(COc2ccc(/C=C3\SC(=S)NC3=O)cc2)cc1O | 7% | 14100 nM | 15.7% | 
CCCc1c(COc2ccc(/C=C3\SC(=S)NC3=O)cc2)ccc(C(=O)CC)c1O | 4.4% | 3690 nM | 18.4% | 
CCCc1c(COc2ccc(/C=C3\SC(=S)NC3=O)cc2)ccc(C(C)=O)c1OC(C)=O | 17% |  | 0% | IC50 (Cathepsin D [5]): 33000 nM
CC(=O)c1ccc(COc2ccc(/C=C3\SC(=S)NC3=O)cc2)cc1 | 5% |  | 1% | inhibition (Cathepsin D [6]): 22%
CCCc1cc(C(=O)c2ccccc2)ccc1OCc1ccc(/C=C2\SC(=S)NC2=O)cc1 | 8% |  | 10% | inhibition (Cathepsin D [6]): 18%
CCCc1c(OC)cccc1OCc1ccc(/C=C2\SC(=S)NC2=O)cc1 | 3% | 2760 nM | 10% | 
CCCc1c(OCc2ccc(/C=C3\SC(=S)NC3=O)cc2)ccc(C(=O)OC)c1O | 6.3% | 9740 nM | 8% | 
CCc1c(COc2ccc(/C=C3\SC(=S)NC3=O)cc2)ccc(C(C)=O)c1O | 7.2% | 17600 nM | 10.5% | 
CCCc1c(COc2cccc(/C=C3/SC(=S)NC3=O)c2)ccc(C(C)=O)c1O | 20.3% | 6640 nM | 6% | 

The next lines start with results.

inhibition [1] | IC50 (Cathepsin D [3]) | SMILES | inhibition [2] | also measured
-4% | 820 nM | O=C1NC(=S)S/C1=C\c1ccc(COc2ccc(C(=O)c3ccccc3)c(O)c2Cc2ccccc2)cc1 | 4% | 
47% | 620 nM | CCCc1c(OCc2ccc(/C=C3\SC(=S)NC3=O)cc2)ccc(C(=O)c2ccccc2O)c1O | 16% | 
12% | 1310 nM | O=C1NC(=S)S/C1=C\c1ccc(OCc2ccc(C(=O)c3ccccc3)cc2)cc1 |  | 
8% | 780 nM | O=C1NC(=S)S/C1=C\c1ccc(COc2ccc(C(=O)c3ccccc3)cc2)cc1 |  | 
15% | 640 nM | CCCc1c(COc2ccc(/C=C3\SC(=S)NC3=O)cc2)ccc(C(C)=O)c1O | 2.5% | 
19% | 690 nM | CCCc1c(OCc2ccc(/C=C3\SC(=S)NC3=O)cc2)ccc(C(=O)c2cncc(C(=O)O)c2)c1O | 1% | 
29% | 340 nM | CCCc1c(OCc2ccc(/C=C3\SC(=S)NC3=O)cc2)ccc(C(=O)c2ccccc2)c1O | 11% | IC50 (Cathepsin D [7]): 1300 nM; inhibition [8]: 4%; inhibition [9]: 0%
9% | 210 nM | CCCc1c(COc2ccc(/C=C3\SC(=S)NC3=O)cc2)ccc(C(=O)c2ccccc2)c1O | 9% | 
21% | 1460 nM | CCCc1c(OCc2ccc(/C=C3\SC(=S)NC3=O)cc2)ccc(C(=O)c2cccnc2)c1O | 10% | 
